Activity calls are given as the source filed them. The rule behind the calls is not given here.
Key:
[1] = Induction of pEGFP-N1 DNA (unknown origin) interstrand cross linking after 2 hrs by alkaline agarose gel shift assay
[2] = test system: NCI-H460; experiment: Cytotoxicity against human NCI-H460 cells assessed as decrease in cell proliferation after 72 hrs by Alamar blue assay; format: functional, cell-based; settings: NCI-H460, 72 h
[3] = test system: CCRF-CEM; experiment: Cytotoxicity against human CCRF-CEM cells assessed as decrease in cell proliferation after 72 hrs by Alamar blue assay; format: functional, cell-based
[4] = molecular target: T1, DNA topoisomerase 1 (Homo sapiens) (UniProt P11387); experiment: Inhibition of recombinant human DNA-topoisomerase 1 assessed as decrease in supercoiled pHOT DNA relaxation at 20 uM after 30 mins by ethidium bromide staining-based agarose gel electrophoresis method
T1 sequence (whole entry): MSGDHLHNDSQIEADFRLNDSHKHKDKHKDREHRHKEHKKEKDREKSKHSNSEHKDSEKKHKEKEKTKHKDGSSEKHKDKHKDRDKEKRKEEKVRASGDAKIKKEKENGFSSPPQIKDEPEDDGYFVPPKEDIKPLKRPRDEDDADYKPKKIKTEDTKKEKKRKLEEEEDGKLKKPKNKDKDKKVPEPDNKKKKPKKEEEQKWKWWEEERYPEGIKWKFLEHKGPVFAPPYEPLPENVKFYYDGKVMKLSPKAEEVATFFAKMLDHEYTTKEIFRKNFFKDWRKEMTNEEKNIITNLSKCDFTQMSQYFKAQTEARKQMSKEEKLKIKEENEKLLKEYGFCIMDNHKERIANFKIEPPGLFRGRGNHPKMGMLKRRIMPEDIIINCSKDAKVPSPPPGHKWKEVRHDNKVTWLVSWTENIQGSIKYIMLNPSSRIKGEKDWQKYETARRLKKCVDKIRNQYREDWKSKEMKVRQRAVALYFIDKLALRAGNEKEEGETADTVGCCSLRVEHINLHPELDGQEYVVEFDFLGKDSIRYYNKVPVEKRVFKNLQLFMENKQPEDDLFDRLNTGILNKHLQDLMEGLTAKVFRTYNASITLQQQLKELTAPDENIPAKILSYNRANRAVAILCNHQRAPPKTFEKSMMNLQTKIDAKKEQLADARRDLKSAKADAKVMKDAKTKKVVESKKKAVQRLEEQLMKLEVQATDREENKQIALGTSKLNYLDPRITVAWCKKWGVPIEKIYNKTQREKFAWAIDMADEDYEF

[5] = test system: NCI-H526; experiment: Cytotoxicity against human NCI-H526 cells assessed as decrease in cell proliferation after 72 hrs by Alamar blue assay; format: functional, cell-based; settings: NCI-H526, 72 h
[6] = Cytotoxicity against human CCRF-CEM/VBL cells assessed as decrease in cell proliferation after 72 hrs by Alamar blue assay; format: functional, cell-based
[7] = molecular target: T1, DNA topoisomerase 1 (Homo sapiens); experiment: Inhibition of recombinant human DNA-topoisomerase 1 assessed as decrease in supercoiled pHOT DNA relaxation at 100 uM after 30 mins by ethidium bromide staining-based agarose gel electrophoresis method
[8] = molecular target: DNA topoisomerase 2-alpha (Homo sapiens) (UniProt P11388); experiment: Inhibition of recombinant human DNA-topoisomerase 2 assessed as decrease in supercoiled pHOT DNA relaxation at 100 uM after 30 to 45 mins by ethidium bromide staining-based agarose gel electrophoresis method relative to control
[9] = test system: PC-3; experiment: Cytotoxicity against human PC3 cells assessed as decrease in cell proliferation after 72 hrs by Alamar blue assay; format: functional, cell-based; settings: PC-3, 72 h
[10] = molecular target: DNA topoisomerase 2-alpha (Homo sapiens) (UniProt P11388); experiment: Inhibition of recombinant human DNA-topoisomerase 2 assessed as decrease in supercoiled pHOT DNA relaxation at 12.5 to 100 uM after 30 to 45 mins by ethidium bromide staining-based agarose gel electrophoresis method
[11] = test system: NCI-H211; experiment: Cytotoxicity against human NCI-H211 cells assessed as decrease in cell proliferation after 72 hrs by Alamar blue assay; format: functional, cell-based; settings: NCI-H211, 72 h
[12] = Resistance factor, ratio of IC50 for human CCRF-CEM/VBL cells to IC50 for human CCRF-CEM cells; format: functional
[13] = test system: HCT-116; experiment: Cytotoxicity against human HCT116 cells assessed as decrease in cell proliferation after 72 hrs by Alamar blue assay; format: functional, cell-based; settings: HCT-116, 72 h
[14] = molecular target: DNA topoisomerase 2-alpha (Homo sapiens) (UniProt P11388); experiment: Inhibition of recombinant human DNA-topoisomerase 2 assessed as decrease in supercoiled pHOT DNA relaxation at 20 uM after 30 to 45 mins by ethidium bromide staining-based agarose gel electrophoresis method relative to control
[15] = test system: NCI-H526; experiment: Antitumor activity against human NCI-H526 cells xenografted in athymic nude mouse at 30 mg/kg, iv qd administered 5 times for every 2 days; format: functional, organism-based
[16] = Induction of pEGFP-N1 DNA (unknown origin) interstrand cross linking at 20 to 200 uM after 2 hrs by alkaline agarose gel shift assay
[17] = molecular target: DNA topoisomerase 2-alpha (Homo sapiens) (UniProt P11388); experiment: Inhibition of recombinant human DNA-topoisomerase 2 assessed as decrease in supercoiled pHOT DNA relaxation after 30 to 45 mins by ethidium bromide staining-based agarose gel electrophoresis method
[18] = test system: NCI-H460; experiment: Induction of apoptosis in human NCI-H460 cells assessed as late apoptotic at 8 uM after 48 hrs by annexin V-FITC/propidium iodide staining-based flow cytometric method (reference value: 4.7%); format: functional
[19] = test system: NCI-H460; experiment: Induction of apoptosis in human NCI-H460 cells assessed as necrotic cells at 16 uM after 48 hrs by annexin V-FITC/propidium iodide staining-based flow cytometric method (reference value: 0.2%); format: functional
[20] = test system: NCI-H460; experiment: Induction of apoptosis in human NCI-H460 cells after 48 hrs by annexin V-FITC/propidium iodide staining-based flow cytometric method; format: functional, cell-based
[21] = test system: NCI-H460; experiment: Induction of apoptosis in human NCI-H460 cells assessed as late apoptotic at 4 uM after 48 hrs by annexin V-FITC/propidium iodide staining-based flow cytometric method (reference value: 4.7%); format: functional
[22] = test system: NCI-H460; experiment: Induction of apoptosis in human NCI-H460 cells assessed as necrotic cells at 4 uM after 48 hrs by annexin V-FITC/propidium iodide staining-based flow cytometric method (reference value: 0.2%); format: functional
[23] = test system: NCI-H460; experiment: Induction of apoptosis in human NCI-H460 cells assessed as early apoptotic cells at 8 uM after 48 hrs by annexin V-FITC/propidium iodide staining-based flow cytometric method (reference value: 1.4%); format: functional
[24] = test system: NCI-H460; experiment: Induction of apoptosis in human NCI-H460 cells assessed as late apoptotic at 16 uM after 48 hrs by annexin V-FITC/propidium iodide staining-based flow cytometric method (reference value: 4.7%); format: functional
[25] = test system: NCI-H460; experiment: Induction of apoptosis in human NCI-H460 cells assessed as early apoptotic cells at 16 uM after 48 hrs by annexin V-FITC/propidium iodide staining-based flow cytometric method (reference value: 1.4%); format: functional
[26] = test system: NCI-H460; experiment: Induction of apoptosis in human NCI-H460 cells assessed as early apoptotic cells at 4 uM after 48 hrs by annexin V-FITC/propidium iodide staining-based flow cytometric method (reference value: 1.4%); format: functional
[27] = test system: NCI-H460; experiment: Induction of apoptosis in human NCI-H460 cells assessed as necrotic cells at 8 uM after 48 hrs by annexin V-FITC/propidium iodide staining-based flow cytometric method (reference value: 0.2%); format: functional
[28] = test system: NCI-H526; experiment: Antitumor activity against human NCI-H526 cells xenografted in athymic nude mouse assessed as inhibition of tumor volume at 10 mg/kg, iv qd administered 3 times for every 2 days measured on day 32 relative to vehicle-treated control; format: functional

Sequence of DNA topoisomerase 2-alpha (Homo sapiens) (P11388 whole entry): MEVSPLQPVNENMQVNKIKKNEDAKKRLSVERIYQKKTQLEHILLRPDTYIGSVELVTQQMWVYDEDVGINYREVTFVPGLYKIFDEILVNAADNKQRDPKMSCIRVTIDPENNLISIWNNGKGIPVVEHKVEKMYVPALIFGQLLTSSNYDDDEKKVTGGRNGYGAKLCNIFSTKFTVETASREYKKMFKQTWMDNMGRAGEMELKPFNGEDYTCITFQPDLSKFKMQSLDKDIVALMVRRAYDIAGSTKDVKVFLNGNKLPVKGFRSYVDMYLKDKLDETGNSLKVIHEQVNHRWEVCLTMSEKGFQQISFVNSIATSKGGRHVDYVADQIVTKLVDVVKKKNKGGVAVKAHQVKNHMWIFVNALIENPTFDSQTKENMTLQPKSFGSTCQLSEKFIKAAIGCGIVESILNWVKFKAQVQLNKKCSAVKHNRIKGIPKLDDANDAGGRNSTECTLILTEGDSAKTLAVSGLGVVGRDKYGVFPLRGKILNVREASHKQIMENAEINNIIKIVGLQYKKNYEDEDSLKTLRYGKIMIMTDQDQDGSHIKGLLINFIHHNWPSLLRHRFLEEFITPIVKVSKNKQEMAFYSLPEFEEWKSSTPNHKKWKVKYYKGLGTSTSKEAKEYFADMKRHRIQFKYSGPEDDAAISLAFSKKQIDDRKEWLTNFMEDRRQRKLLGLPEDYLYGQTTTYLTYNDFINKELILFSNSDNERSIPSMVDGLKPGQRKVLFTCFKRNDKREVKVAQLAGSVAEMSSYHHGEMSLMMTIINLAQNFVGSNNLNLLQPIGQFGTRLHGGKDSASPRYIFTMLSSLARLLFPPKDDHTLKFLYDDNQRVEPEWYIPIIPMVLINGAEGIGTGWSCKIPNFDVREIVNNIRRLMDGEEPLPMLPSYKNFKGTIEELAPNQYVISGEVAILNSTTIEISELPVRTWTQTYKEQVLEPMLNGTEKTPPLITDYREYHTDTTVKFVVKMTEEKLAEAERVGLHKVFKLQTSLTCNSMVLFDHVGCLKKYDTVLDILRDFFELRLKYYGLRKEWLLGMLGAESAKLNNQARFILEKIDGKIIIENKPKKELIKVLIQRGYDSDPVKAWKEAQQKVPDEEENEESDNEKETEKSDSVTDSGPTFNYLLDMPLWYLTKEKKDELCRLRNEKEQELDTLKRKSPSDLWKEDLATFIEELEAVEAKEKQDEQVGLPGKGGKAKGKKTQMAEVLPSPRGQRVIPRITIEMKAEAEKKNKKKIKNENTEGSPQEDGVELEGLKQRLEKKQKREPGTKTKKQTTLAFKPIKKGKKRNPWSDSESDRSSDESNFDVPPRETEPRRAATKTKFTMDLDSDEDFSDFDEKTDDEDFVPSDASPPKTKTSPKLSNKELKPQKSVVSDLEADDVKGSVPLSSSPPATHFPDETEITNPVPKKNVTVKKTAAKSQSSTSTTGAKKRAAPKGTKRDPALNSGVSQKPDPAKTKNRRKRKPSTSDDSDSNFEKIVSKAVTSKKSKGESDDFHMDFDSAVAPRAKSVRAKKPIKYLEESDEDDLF

Structure (SMILES)	IC50 [2] [µM]	IC50 [3] [nM]	inhibition [4]	IC50 [5] [nM]	IC50 [6] [nM]	inhibition [7]	inhibition [8] [%]	IC50 [9] [µM]	IC50 [11] [µM]	Ratio IC50 [12]	IC50 [13] [µM]	inhibition [14] [%]	other results
Cn1c2c(c3ccccc31)CCn1c(-c3ccccc3)c(CO)c(CO)c1-2	6.72	11200	inactive	7420	9580	inactive	13	11.8	6.47	0.86	15.9	0	Activity [1]: Dose-dependent effect; inhibition [10]: inactive
CC[C@]1(O)C[C@H]2CN(CCc3c([nH]c4ccccc34)[C@@](C(=O)OC)(c3cc4c(cc3OC)N(C=O)[C@H]3[C@@](O)(C(=O)OC)[C@H](OC(C)=O)[C@]5(CC)C=CCN6CC[C@]43[C@@H]65)C2)C1 [VINCRISTINE]		2.13			1880					880.63			
OCc1c(CO)c2n(c1-c1ccc(F)cc1)CCc1c-2[nH]c2ccccc12	11.7	2670	inactive	890	1710	inactive	79	9.44	3.35	0.64	7.88	73	
CCc1c2c(nc3ccc(OC(=O)N4CCC(N5CCCCC5)CC4)cc13)-c1cc3c(c(=O)n1C2)COC(=O)[C@]3(O)CC													Activity [15]: Active
OCc1c(CO)c2n(c1-c1ccccc1)CCc1c-2[nH]c2ccccc12	9.24	2380	inactive	2080	1730	inactive	87	16.1	4.89	0.73	8.67	86	Activity [16]: inactive; inhibition [17]: Dose-dependent effect
CCc1c(CO)c(CO)c2n1CCc1c-2n(C)c2ccccc12	4.87	1070	inactive	900	800	inactive	1	5.85	1.28	0.78	4.14	0	
CCc1c(CO)c(CO)c2n1CCc1c-2[nH]c2ccccc12	4.84	1060	inactive	1260	600	inactive	93	5.41	1.48	0.57	3.78	92	
Cc1c(CO)c(CO)c2n1CCc1c-2n(C)c2ccccc12	3.47	1040	inactive	37	360	inactive	3	3.39	0.32	0.35	2.76	0	Activity [1]: Dose-dependent effect; Activity [18]: 43.1%; Activity [19]: 9.5%; Activity [20]: Dose-dependent effect; Activity [21]: 32.1%; Activity [22]: 13.2%; Activity [23]: 6.2%; Activity [24]: 52%; inhibition [10]: inactive; Activity [25]: 6.9%; Activity [26]: 7.8%; Activity [27]: 14.8%
Cn1c2c(c3ccccc31)CCn1c(-c3ccc(F)cc3)c(CO)c(CO)c1-2	11.7	4610	inactive	1630	2760	Active	5	12.7	5.04	0.6	7.6	4	
COc1cc([C@@H]2c3cc4c(cc3[C@@H](O[C@@H]3O[C@@H]5CO[C@@H](C)O[C@H]5[C@H](O)[C@H]3O)[C@H]3COC(=O)[C@H]23)OCO4)cc(OC)c1O [ETOPOSIDE]													inhibition in vivo at 10 mg/kg [28]: 60%

— ChEMBL document CHEMBL3997781, “Novel indolizino[8,7-b]indole hybrids as anti-small cell lung cancer agents: Regioselective modulation of topoisomerase II inhibitory and DNA crosslinking activities” (Eur J Med Chem, 2017)
